Source: US7696249B2, “Diphenyl urea derivatives” (ARPIDA AG, priority 2005, dated 2010)
≈ marks a conversion by molar mass, not a printed value. Where two headings read alike, the source gives them in different places.

Columns and labels:
Type in all cases: cell-based
E. faecalis VanB E80-8 = test: MIC, broth dilution antimicrobial susceptibility testing (CLSI); conditions: for MIC: Enterococcus faecalis, VANBE808, pathogens for skin infections, read-out: Minimum Inhibitory Concentration (MIC) E. faecalis VanB E80-8; for Minimum Inhibitory Concentration (MIC) E. faecalis VanB E80-8: pathogens for gastro-intestinal infections
Procedure: (§1) Antimicrobial susceptibility testing was performed in accordance with the Clinical and Laboratory Standards Institute (CLSI).
(§2) Clinical and Laboratory Standards Institute (CLSI; formerly NCCLS): Methods for Dilution Antimicrobial Susceptibility Tests for Bacteria That Grow Aerobically; Approved Standard—Seventh Edition (2006). Clinical and Laboratory Standards Institute document M7-A7.

S. aureus ATCC 25923 = test: as above; conditions: Staphylococcus aureus, ATCC25923
Procedure: as §1, §2

S. aureus MRSA 101 = test: as above; conditions: for MIC: Staphylococcus aureus, MRSA, pathogens for nasal colonization, read-out: Minimum Inhibitory Concentration (MIC) S. aureus MRSA 101; for Minimum Inhibitory Concentration (MIC) S. aureus MRSA 101: pathogens for ocular infections
Procedure: as §1, §2

S. aureus MRSA 39 = test: as above; conditions: for MIC: Staphylococcus aureus, MRSA, pathogens for nasal colonization, read-out: Minimum Inhibitory Concentration (MIC) S. aureus MRSA 39
Procedure: as §1, §2

S. epidermidis MRSE 70 = test: as above; conditions: for MIC: Staphylococcus epidermidis, MRSE, pathogens for nasal colonization, read-out: Minimum Inhibitory Concentration (MIC) S. epidermidis MRSE 70
Procedure: as §1, §2

S. pneumoniae 1/1 = test: MIC, CLSI methodology with Todd Hewitt Broth without blood; conditions: Streptococcus pneumoniae, pathogens for ocular infections, read-out: Minimum Inhibitory Concentration (MIC) S. pneumoniae 1/1
Procedure: (§3) Antimicrobial susceptibility testing was performed in accordance with the Clinical and Laboratory Standards Institute (CLSI). Clinical and Laboratory Standards Institute (CLSI; formerly NCCLS): Methods for Dilution Antimicrobial Susceptibility Tests for Bacteria That Grow Aerobically; Approved Standard—Seventh Edition (2006). Clinical and Laboratory Standards Institute document M7-A7. Streptococci (S. pneumoniae, S. pyogenes, S. viridans) were tested following the CLSI methodology with the exception that Todd Hewitt Broth without blood was used. Anaerobic bacteria (P. acnes, B. distasonis) were tested following CLSI (formerly NCCLS) guidelines except for using microbroth dilutions in Wilkins Chalgren Broth. National Committee for Clinical Laboratory Standards (NCCLS). Methods for Anti-microbial Susceptibility Testing of Anaerobic Bacteria; Approved Standard—Sixth Edition (2004). NCCLS document M11-A6.

S. pyogenes GAS-1 = test: as above; conditions: for MIC: Streptococcus pyogenes, GAS1, pathogens for ocular infections, read-out: Minimum Inhibitory Concentration (MIC) S. pyogenes GAS-1; for Minimum Inhibitory Concentration (MIC) S. pyogenes GAS-1: pathogens for skin infections
Procedure: as §3

S. viridans UHC 7 = test: as above; conditions: Streptococcus viridans, UHC7; pathogens for dental infections; read-out: Minimum Inhibitory Concentration (MIC) S. viridans UHC 7
Procedure: as §3

B. distasonis 5770 = test: MIC, anaerobic bacteria, microbroth dilutions in Wilkins Chalgren Broth; conditions: Parabacteroides distasonis, pathogens for gastro-intestinal infections, read-out: Minimum Inhibitory Concentration (MIC) B. distasonis 5770
Procedure: as §3, with “(CLSI).” for “(CLSI). Clinical and Laboratory Standards Institute (CLSI; formerly NCCLS): Methods for Dilution Antimicrobial Susceptibility Tests for Bacteria That Grow Aerobically; Approved Standard—Seventh Edition (2006). Clinical and Laboratory Standards Institute document M7-A7.”

P. acnes 6390 = test: as above; conditions: Cutibacterium acnes, pathogens for skin infections, read-out: Minimum Inhibitory Concentration (MIC) P. acnes 6390
Procedure: as §3, with “(CLSI).” for “(CLSI). Clinical and Laboratory Standards Institute (CLSI; formerly NCCLS): Methods for Dilution Antimicrobial Susceptibility Tests for Bacteria That Grow Aerobically; Approved Standard—Seventh Edition (2006). Clinical and Laboratory Standards Institute document M7-A7.”

[1] = pathogens for nasal colonization, read-out: Minimum Inhibitory Concentration (MIC) S. aureus ATCC 25923
[2] = pathogens for ocular infections, read-out: Minimum Inhibitory Concentration (MIC) S. aureus 25923
[3] = pathogens for ocular infections

SMILES	MIC (E. faecalis VanB E80-8) [µg/mL]	Minimum Inhibitory Concentration (MIC) E. faecalis VanB E80-8 (E. faecalis VanB E80-8) [micrograms/ml]	MIC (S. aureus ATCC 25923; [1]) [µg/mL]	MIC (S. aureus ATCC 25923; [2]) [µg/mL]	MIC (S. aureus MRSA 101) [µg/mL]	Minimum Inhibitory Concentration (MIC) S. aureus MRSA 101 (S. aureus MRSA 101) [micrograms/ml]	MIC (S. aureus MRSA 39) [µg/mL]	Minimum Inhibitory Concentration (MIC) S. aureus MRSA 39 (S. aureus MRSA 39; [3]) [micrograms/ml]	Minimum Inhibitory Concentration (MIC) S. aureus MRSA 39 (S. aureus MRSA 39; pathogens for skin infections) [micrograms/ml]	MIC (S. epidermidis MRSE 70) [µg/mL]	Minimum Inhibitory Concentration (MIC) S. epidermidis MRSE 70 (S. epidermidis MRSE 70; [3]) [micrograms/ml]	Minimum Inhibitory Concentration (MIC) S. epidermidis MRSE 70 (S. epidermidis MRSE 70; pathogens for skin infections) [micrograms/ml]	MIC (S. pneumoniae 1/1) [µg/mL]	MIC (S. pyogenes GAS-1) [µg/mL]	Minimum Inhibitory Concentration (MIC) S. pyogenes GAS-1 (S. pyogenes GAS-1) [micrograms/ml]	MIC (S. viridans UHC 7) [µg/mL]	MIC (B. distasonis 5770) [µg/mL]	MIC (P. acnes 6390) [µg/mL]
O=C(Nc1cc(F)cc(C(F)(F)F)c1)Nc1ccc(Cl)c(C(F)(F)F)c1 [Example 1, 1-(3-Fluoro-5-trifluoromethyl-phenyl)-3-(4-chloro-3-trifluoromethyl-phenyl)-urea]	1 (≈ 2.5 µM)	1	0.125 (≈ 0.312 µM)	0.125 (≈ 0.312 µM)	0.125 (≈ 0.312 µM)	0.125	0.125 (≈ 0.312 µM)	0.125	0.125	0.25 (≈ 0.624 µM)	0.25	0.25	0.06 (≈ 0.15 µM)	0.125 (≈ 0.312 µM)	0.125	0.5 (≈ 1.25 µM)	0.25 (≈ 0.624 µM)	≤ 0.03
O=C(Nc1cc(F)cc(C(F)(F)F)c1)Nc1ccc(Br)c(C(F)(F)F)c1 [Example 2, 1-(3-Fluoro-5-trifluoromethyl-phenyl)-3-(4-bromo-3-trifluoromethyl-phenyl)-urea]	1 (≈ 2.25 µM)	1	0.125 (≈ 0.281 µM)	0.125 (≈ 0.281 µM)	0.25 (≈ 0.562 µM)	0.25	0.125 (≈ 0.281 µM)	0.125	0.125	0.5 (≈ 1.12 µM)	0.5	0.5	≤ 0.03	0.06 (≈ 0.135 µM)	0.06	0.5 (≈ 1.12 µM)	0.25 (≈ 0.562 µM)	≤ 0.03
Fc1cc(NC(=S)Nc2ccc(Cl)c(C(F)(F)F)c2)cc(C(F)(F)F)c1 [Example 3, 1-(3-Fluoro-5-trifluoromethyl-phenyl)-3-(4-chloro-3-trifluoromethyl-phenyl)-thiourea]	2 (≈ 4.8 µM)	2	0.25 (≈ 0.6 µM)	0.25 (≈ 0.6 µM)	0.25 (≈ 0.6 µM)	0.25	0.25 (≈ 0.6 µM)	0.25	0.25	0.25 (≈ 0.6 µM)	0.25	0.25	0.5 (≈ 1.2 µM)	0.5 (≈ 1.2 µM)	0.5	2 (≈ 4.8 µM)	0.5 (≈ 1.2 µM)	≤ 0.03
